# Assays:
# [1] = system: platelet-rich plasma of healthy test subjects; test: Antithrombotic activity: collagen-induced thrombocyte aggregation (BORN and CROSS method); assay type: cell-based; settings: Homo sapiens, 10 min, plasma incubated for 10 minutes with the substance at 37° C., read-out: EC50 (50% change in the "optical density" in terms of an inhibition of aggregation)
# Experimental: Thrombocyte aggregation is measured using the BORN and CROSS method (J. Physiol. 170, 397 (1964)) in the platelet-rich plasma of healthy test subjects. To inhibit coagulation, 3.14% sodium citrate is added to the blood in a ratio by volume of 1:10.
# The pattern of the decrease in optical density of the platelet suspension is photometrically measured and recorded after the addition of aggregation-inducing substance. The rate of aggregation is determined from the angle of inclination of the density curve. The point on the curve at which there is maximum transmittance is used to calculate the "optical density".
# The quantity of collagen is kept as small as possible but sufficient to produce an irreversible reaction curve. The standard commercial collagen produced by Hormonchemie of Munich is used. Before the addition of collagen, the plasma is incubated for 10 minutes with the substance at 37° C.
# From the measurements obtained, an EC50 is determined graphically, showing a 50% change in the "optical density" in terms of an inhibition of aggregation.
# [2] = system: mice; test: Acute toxicity after oral administration of a single dose; assay type: in vivo; settings: observation period 14 days; for animals died (mortality): single dose 500 mg/kg; for Approximate acute toxicity: single dose, groups of 10
# Experimental: The acute toxicity of the substances being tested was determined approximately in groups of 10 mice after oral administration of a single dose (observation period 14 days): […]
Compound,EC50 [1] [µM],animals died (mortality) [2],Approximate acute toxicity [2] [mg/kg]
"Cn1c(CCNS(=O)(=O)c2ccccc2)ccc1C(=O)CCC(=O)O [Substance A, 4-[2-(2-Benzenesulphonylamino-ethyl)-1-methylpyrrol-5-yl]-4-oxybutyric acid]",3.5,0 out of 10 animals,500
"Cn1c(CCNS(=O)(=O)c2ccc(Cl)cc2)ccc1C(=O)CCC(=O)O [Substance B, 4-[2-(2-(p-chlorobenzenesulphonylamino)-ethyl)-1-methylpyrrol-5-yl]-4-oxybutyric acid]",0.4,0 out of 10 animals,500
"Cn1c(CCNS(=O)(=O)c2cccs2)ccc1C(=O)CCC(=O)O [Substance C, 4-[2-(2-thiophen-2-yl-sulphonylamino-ethyl)-1-methylpyrrol-5-yl]-4-oxybutyric acid]",0.39,0 out of 10 animals,500
"Cn1c(CCNS(=O)(=O)c2ccc(F)cc2)ccc1C(=O)CCC(=O)O [Substance D, 4-[2-(2-(p-Fluorobenzenesulphonylamino)-ethyl)-1-methylpyrrol-5-yl]-4-oxybutyric acid]",0.36,0 out of 10 animals,500
"Cn1c(CCNS(=O)(=O)c2ccccc2)ccc1C1=NNC(=O)CC1 [Substance E, 6-[2-(2-Benzenesulphonylamino-ethyl)-1-methylpyrrol-5-yl]-4,5-dihydro-3(2H)-pyridazinone]",2.9,0 out of 10 animals,500
